# Experimental data as given in patent publication US6737383B1, “Herbicidal oxadiazolidines” (priority 1999, dated 2004).
# How the values were obtained:
# bedstraw = experiment: Test B pre/postemergence bedstraw; assay type: in vivo, Galium aparine
# Procedure, shortened: (§1)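 Test chemicals in a non-phytotoxic solvent mixture with surfactant were sprayed preemergence onto planted seeds and postemergence onto plants 2 to 18 cm tall (1- to 4-leaf stage). After twelve to sixteen days in a greenhouse, injury was visually rated against untreated controls from 0 (no effect) to 10 (complete control).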
# blackgrass = experiment: Test B pre/postemergence blackgrass; assay type: in vivo, Alopecurus myosuroides
# Procedure, shortened: as §1
# giant foxtail = experiment: Test B pre/postemergence giant foxtail; assay type: in vivo, Setaria faberii
# Procedure, shortened: as §1
# morningglory = experiment: Test B pre/postemergence morningglory; assay type: in vivo, Ipomoea hederacea
# Procedure, shortened: as §1
# pigweed = experiment: Test B pre/postemergence pigweed; assay type: in vivo, Amaranthus retroflexus
# Procedure, shortened: as §1
# rape = experiment: Test B pre/postemergence rape; assay type: in vivo, Brassica napus
# Procedure, shortened: as §1
# soybean = experiment: Test B pre/postemergence soybean; assay type: in vivo, Glycine max
# Procedure, shortened: as §1
# sugar beet = experiment: Test B pre/postemergence sugar beet; assay type: in vivo, Beta vulgaris
# Procedure, shortened: as §1
# velvetleaf = experiment: Test B pre/postemergence velvetleaf; assay type: in vivo, Abutilon theophrasti
# Procedure, shortened: as §1
# wheat = experiment: Test B pre/postemergence wheat; assay type: in vivo, Triticum aestivum
# Procedure, shortened: as §1
# wild oat = experiment: Test B pre/postemergence wild oat; assay type: in vivo, Avena fatua
# Procedure, shortened: as §1
# purple nutsedge = experiment: Test B pre/postemergence purple nutsedge; assay type: in vivo, Cyperus rotundus
# Procedure, shortened: as §1
# rice = experiment: Test B flood test rice; assay type: in vivo, Oryza sativa
# Procedure, shortened: (§2)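 Plants were grown to the 2-leaf stage before treatment with test chemical, then held in a greenhouse for twelve to sixteen days. Injury was visually rated against untreated controls on a 0–10 scale, where 0 is no effect and 10 is complete control.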
# smallflower flatsedge = experiment: Test B flood test smallflower flatsedge; assay type: in vivo, Cyperus difformis
# Procedure, shortened: as §2
# duck salad = experiment: Test B flood test duck salad; assay type: in vivo, Heteranthera limosa
# Procedure, shortened: as §2
# bamyardgrass = experiment: Test B flood test barnyardgrass; assay type: in vivo, Echinochloa crus-galli
# Procedure, shortened: as §2
# [1] = Postemergence, Rate 62 g/ha, scale 0 to 10, 0 is no effect, 10 is complete control
# [2] = Postemergence, Rate 250 g/ha, scale 0 to 10, 0 no effect, 10 complete control
# [3] = Preemergence, Rate 62 g/ha, scale 0 to 10, 0 is no effect, 10 is complete control
# [4] = Preemergence, Rate 125 g/ha, scale 0 to 10 (0 no effect, 10 complete control)
# [5] = Preemergence, Rate 250 g/ha, scale of 0 to 10 where 0 is no effect and 10 is complete control
# [6] = Preemergence, Rate 500 g/ha, scale 0 (no effect) to 10 (complete control)
# [7] = Rate 125 g/ha, Postemergence, scale 0 to 10, 0 no effect, 10 complete control
# [8] = Rate 500 g/ha, Postemergence, 0 to 10 scale (0 no effect, 10 complete control)
# [9] = Rate 125 g/ha, Postemergence section (flood test species), scale 0 to 10, 0 no effect, 10 complete control
# [10] = Rate 500 g/ha, Postemergence section of Table B, 0 to 10 scale (0 no effect, 10 complete control)
# [11] = flood test, listed under Postemergence, Rate 250 g/ha, scale 0 to 10, 0 no effect, 10 complete control
structure (smiles),measurement,setting,value
CCN(CC)C(=O)n1oc(=O)n(-c2cc(Cl)cc(Cl)c2)c1=O [Compound 11],Bedstraw plant response rating,bedstraw; [1],0
same,Bedstraw plant response rating,bedstraw; [2],0
same,"Plant response rating, Bedstraw",bedstraw; [3],0
same,"Plant response rating, Bedstraw",bedstraw; [4],0
same,"Plant response rating, Bedstraw",bedstraw; [5],0
same,Bedstraw plant response rating,bedstraw; [6],0
same,Bedstraw plant response rating,bedstraw; [7],0
same,Bedstraw plant response rating,bedstraw; [8],0
same,Blackgrass plant response rating,blackgrass; [1],0
same,Blackgrass plant response rating,blackgrass; [2],0
same,"Plant response rating, Blackgrass",blackgrass; [3],0
same,"Plant response rating, Blackgrass",blackgrass; [4],0
same,"Plant response rating, Blackgrass",blackgrass; [5],0
same,Blackgrass plant response rating,blackgrass; [6],0
same,Blackgrass plant response rating,blackgrass; [7],0
same,Blackgrass plant response rating,blackgrass; [8],0
same,Giant foxtail plant response rating,giant foxtail; [1],0
same,Giant foxtail plant response rating,giant foxtail; [2],0
same,"Plant response rating, Giant foxtail",giant foxtail; [3],0
same,"Plant response rating, Giant foxtail",giant foxtail; [4],0
same,"Plant response rating, Giant foxtail",giant foxtail; [5],0
same,Giant foxtail plant response rating,giant foxtail; [6],3
same,Giant foxtail plant response rating,giant foxtail; [7],0
same,Giant foxtail plant response rating,giant foxtail; [8],0
same,Morningglory plant response rating,morningglory; [1],0
same,Morningglory plant response rating,morningglory; [2],0
same,"Plant response rating, Morningglory",morningglory; [3],0
same,"Plant response rating, Morningglory",morningglory; [4],0
same,"Plant response rating, Morningglory",morningglory; [5],0
same,Morningglory plant response rating,morningglory; [6],0
same,Morningglory plant response rating,morningglory; [7],0
same,Morningglory plant response rating,morningglory; [8],0
same,Redroot pigweed plant response rating,pigweed; [1],0
same,Redroot pigweed plant response rating,pigweed; [2],0
same,"Plant response rating, Redroot pigweed",pigweed; [3],0
same,"Plant response rating, Redroot pigweed",pigweed; [4],0
same,"Plant response rating, Redroot pigweed",pigweed; [5],0
same,Redroot pigweed plant response rating,pigweed; [6],0
same,Redroot pigweed plant response rating,pigweed; [7],0
same,Redroot pigweed plant response rating,pigweed; [8],0
same,Rape plant response rating,rape; [1],0
same,Rape plant response rating,rape; [2],0
same,"Plant response rating, Rape",rape; [3],0
same,"Plant response rating, Rape",rape; [4],0
same,"Plant response rating, Rape",rape; [5],0
same,Rape plant response rating,rape; [6],0
same,Rape plant response rating,rape; [7],0
same,Rape plant response rating,rape; [8],0
same,Soybean plant response rating,soybean; [1],0
same,Soybean plant response rating,soybean; [2],0
same,"Plant response rating, Soybean",soybean; [3],0
same,"Plant response rating, Soybean",soybean; [4],0
same,"Plant response rating, Soybean",soybean; [5],0
same,Soybean plant response rating,soybean; [6],0
same,Soybean plant response rating,soybean; [7],0
same,Sugarbeets plant response rating,sugar beet; [1],0
same,Sugarbeets plant response rating,sugar beet; [2],0
same,"Plant response rating, Sugarbeets",sugar beet; [3],0
same,"Plant response rating, Sugarbeets",sugar beet; [4],0
same,"Plant response rating, Sugarbeets",sugar beet; [5],0
same,Sugarbeets plant response rating,sugar beet; [6],0
same,Sugarbeets plant response rating,sugar beet; [7],0
same,Velvetleaf plant response rating,velvetleaf; [1],0
same,Velvetleaf plant response rating,velvetleaf; [2],0
same,"Plant response rating, Velvetleaf",velvetleaf; [3],0
same,"Plant response rating, Velvetleaf",velvetleaf; [4],0
same,"Plant response rating, Velvetleaf",velvetleaf; [5],0
same,Velvetleaf plant response rating,velvetleaf; [6],0
same,Velvetleaf plant response rating,velvetleaf; [7],0
same,Wheat plant response rating,wheat; [1],0
same,Wheat plant response rating,wheat; [2],0
same,"Plant response rating, Wheat",wheat; [3],0
same,"Plant response rating, Wheat",wheat; [4],0
same,"Plant response rating, Wheat",wheat; [5],0
same,Wheat plant response rating,wheat; [6],0
same,Wheat plant response rating,wheat; [7],0
same,Wild oats plant response rating,wild oat; [1],0
same,Wild oats plant response rating,wild oat; [2],0
same,"Plant response rating, Wild oats",wild oat; [4],0
same,"Plant response rating, Wild oats",wild oat; [5],0
same,Wild oats plant response rating,wild oat; [6],0
same,Wild oats plant response rating,wild oat; [7],0
same,Nutsedge plant response rating,purple nutsedge; [1],0
same,Nutsedge plant response rating,purple nutsedge; [2],0
same,"Plant response rating, Nutsedge",purple nutsedge; [3],0
same,"Plant response rating, Nutsedge",purple nutsedge; [4],0
same,"Plant response rating, Nutsedge",purple nutsedge; [5],0
same,Nutsedge plant response rating,purple nutsedge; [6],0
same,Nutsedge plant response rating,purple nutsedge; [7],0
same,Nutsedge plant response rating,purple nutsedge; [8],0
same,Rice plant response rating,rice; [1],0
same,Rice plant response rating,rice; [9],0
same,Rice plant response rating,rice; [10],0
same,Rice plant response rating,rice; [11],0
same,S. Flatsedge plant response rating,smallflower flatsedge; [1],0
same,S. Flatsedge plant response rating,smallflower flatsedge; [9],0
same,S. Flatsedge plant response rating,smallflower flatsedge; [11],0
same,Ducksalad plant response rating,duck salad; [1],0
same,Ducksalad plant response rating,duck salad; [9],0
same,Ducksalad plant response rating,duck salad; [10],0
same,Ducksalad plant response rating,duck salad; [11],0
same,Barnyardgrass plant response rating,bamyardgrass; [1],0
same,Barnyardgrass plant response rating,bamyardgrass; [9],0
same,Barnyardgrass plant response rating,bamyardgrass; [10],0
same,Barnyardgrass plant response rating,bamyardgrass; [11],0
